According to patent US8063053B2, “1-(arylsulfonyl)-4-(piperazin-1-yl)-1H-benzimidazoles as 5-hydroxytryptamine-6 ligands” (Wyeth LLC, priority 2008, dated 2011):

Each compound was assayed against T1, serotonin 5-HT6 receptor subtype (Homo sapiens, UniProt P50406) (assay: 5-HT6 binding affinity ([3H]-LSD SPA binding)). Settings: read-out: 5-HT6 binding Ki.
T1 construct: host or cells: CHO-Dukx-A2 cells, clone 50-7
T1 sequence (P50406 whole entry): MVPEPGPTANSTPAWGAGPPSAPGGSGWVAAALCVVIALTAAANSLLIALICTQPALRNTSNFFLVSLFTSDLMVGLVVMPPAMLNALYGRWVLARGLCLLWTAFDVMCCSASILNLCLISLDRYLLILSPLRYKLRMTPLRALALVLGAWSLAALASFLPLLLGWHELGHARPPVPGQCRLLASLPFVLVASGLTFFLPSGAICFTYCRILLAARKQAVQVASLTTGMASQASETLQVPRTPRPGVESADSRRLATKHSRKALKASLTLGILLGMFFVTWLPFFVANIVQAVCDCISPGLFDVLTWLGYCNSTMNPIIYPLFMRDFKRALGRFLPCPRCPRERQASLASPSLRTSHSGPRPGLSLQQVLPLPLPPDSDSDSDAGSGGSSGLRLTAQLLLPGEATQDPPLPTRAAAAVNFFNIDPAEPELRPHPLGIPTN

Row | SMILES | Ki [nM]
1 | COc1c(F)cccc1S(=O)(=O)n1cnc2c(N3CCNCC3)cccc21 [Example 74, 1-[(3-fluoro-2-methoxyphenyl)sulfonyl]-4-piperazin-1-yl-1H-benzimidazole] | 0.485
2 | Cc1nc2c(N3C[C@@H]4C[C@H]3CN4)cccc2n1S(=O)(=O)c1cccc2ccccc12 [Example 110, 4-[(1S,4S)-2,5-diazabicyclo[2.2.1]hept-2-yl]-2-methyl-1-(naphthalen-1-ylsulfonyl)-1H-benzimidazole] | 9.92
3 | COc1cccc(S(=O)(=O)n2c(C)nc3c(N4CCNCC4)cccc32)c1 [Example 45, 1-[(3-methoxyphenyl)sulfonyl]-2-methyl-4-piperazin-1-yl-1H-benzimidazole] | 2.07
4 | CC(C)CC1CN(c2cccc3c2ncn3S(=O)(=O)c2ccccc2)CCN1 (stereo not shown) [Example 123, 4-(3-isobutylpiperazin-1-yl)-1-(phenylsulfonyl)-1H-benzimidazole] | 34.3
5 | CC(C)c1nc2c(N3CCNCC3)cccc2n1S(=O)(=O)c1ccccc1OC(F)(F)F [Example 63, 2-(1-methylethyl)-4-piperazin-1-yl-1-{[2-(trifluoromethoxy)phenyl]sulfonyl}-1H-benzimidazole] | 1.14
6 | C[C@@H]1CN(c2cccc3c2ncn3S(=O)(=O)c2cccc3ccccc23)CCN1 [Example 78, 4-[(3R)-3-methylpiperazin-1-yl]-1-(naphthalen-1-ylsulfonyl)-1H-benzimidazole] | 1.28
7 | Cc1ccc(S(=O)(=O)n2c(C(C)C)nc3c(N4CCNCC4)cccc32)c2ccccc12 [Example 64, 2-(1-methylethyl)-1-[(4-methylnaphthalen-1-yl)sulfonyl]-4-piperazin-1-yl-1H-benzimidazole] | 1.6
